The values below come from PubChem BioAssay AID1963848 (Molecular Pharmacology Branch, DTP, NCI, 2024).

For this test, the system named is 379773-124-R-J2-PDC spheroid viability. The experiment in a line: Anticancer human tumor 379773-124-R-J2-PDC patient-derived endometrial carcinoma cell line growth inhibition [POLQ]. Particulars: spheroids with HUVEC and MSC; for viability, T/C: stronger effect = lower value. As for the experimental part: Multicellular complex tumor spheroid response to Polymerase (POL) inhibitors (novobiocin, ART-558, RP6685) in combination with a variety of drugs and investigational agents in selected tumor cell lines
The POL inhibitors (novobiocin, ART-558, and RP6685) were evaluated both individually and in combination with standard of care and investigational anticancer small molecules within a complex spheroid model of solid tumors. . Complex spheroids include a stromal component modeled by human endothelial cells (HUVEC) and fibroblasts modeled by human mesenchymal stem cells (MSCs). The concentration ranges selected for each drug and investigational agent were based upon clinically achievable concentrations if the clinical Cmax of the agent was known.
Compounds. The drugs and investigational agents: novobiocin (NSC847541), ART-558 (NSC835418), RP-6685 (NSC848927), peposertib (NSC802822), ceralasertib (NSC780249), elimusertib (NSC800525), camonsertib (NSC841442), AZD-1390 (NSC803789), olaparib (NSC753686), talazoparib (NSC767125), rucaparib (NSC756644), sotorasib (NSC818433), MRTX-1133 (NSC836407), SN-38 (NSC673596), topotecan (NSC609699), epotoside (NSC141540), doxorubicin (NSC123127), gemcitabine (NSC613327), 5-fluorouracil (NSC19893), paclitaxel (NSC125973), vemurafenib (NSC761431), MSA-2 (NSC828583), SN-011 (NSC837082), adavosertib (NSC754352), prexasertib (NSC758257), carboplatin (NSC241240) and oxaliplatin (NSC266046), were obtained from the National Cancer Institute (NCI) Developmental Therapeutics Program Chemical Repository (21). The FDA-approved anticancer drug set is available from the Developmental Therapeutics Program at https://dtp.cancer.gov/organization/dscb/obtaining/. […] The stock solutions were prepared in dimethyl sulfoxide (DMSO, Sigma-Aldrich, St. Louis, MO, cat. D2650), except for the platinum compounds which were prepared in saline (Quality Biological, Gaithersburg, MD, cat. 114-055-101), at 800-fold the tested concentration and stored at -70 degrees C prior to their use. All drugs and investigational agents were tested over a range starting from a high concentration at or near the clinical Cmax and decreasing in half-log increments. If the clinical Cmax for an agent had not been determined, the highest concentration tested was 10 microM, except for SN-38, which was tested at a high concentration of 1 microM.
Cell Culture. All cells were maintained in an incubator at 37 degrees C and 5% CO2 with 95% humidity. The PDC lines were cultured according to standard operating procedures established by the NCI PDMR (https://pdmr.cancer.gov). Table 3 of the manuscript, lists the cell lines along with the number of the three cell types plated to form the mct-spheroids and media for tumor cell growth. After thawing, all PDC lines, except 997537-175-T-J1-PDC and 415267-285-R-J2-PDC, were cultured in Matrigel-coated flasks prepared with a working solution of 1X Ham's F-12 nutrient mix, without supplementation (Thermo Fisher Scientific, cat. 11765054), 100 U/mL penicillin-streptomycin (Thermo Fisher Scientific, cat. 15140122), and 2.5% Matrigel (Corning Inc., Corning, NY, cat. 354248) for the first three passages. The two PDC lines 997537-175-T-J1-PDC and 415267-285-R-J2-PDC were cultured on uncoated flasks. The 857933-349-R-J2-PDC line was cultured in 6C/Colon 1B media containing advanced DMEM/F-12 (Thermo Fisher Scientific, cat. 12634028), 10 mM HEPES (Thermo Fisher Scientific, cat. 15630080), 1X GlutaMAX supplement (Thermo Fisher Scientific, cat. 35050061), 0.1 mg/mL primocin (InvivoGen, San Diego, CA, cat. ant-pm-2), 10% defined fetal bovine serum, heat inactivated (HyClone Laboratories Inc., Logan, UT, cat. SH30070.03HI), 50% L-WRN conditioned media (ATCC, cat. CRL-3276), 1.25 mM N-Acetyl-L-cysteine (Sigma-Aldrich, cat. A9165), 10 mM nicotinamide (Sigma-Aldrich, cat. N0636), 1X B-27 supplement (Thermo Fisher Scientific, cat. 17504044), 1X N-2 supplement (Thermo Fisher Scientific, cat. […]

[1] abbreviates: curve of first compound, second compound 0.0316 µM.
[2] abbreviates: curve of first compound, second compound 0.1 µM.
The mark [3] stands for this setting: curve of first compound, second compound 0.316 µM.
Where [4] appears, read: curve of first compound, second compound 1 µM.
Setting [5] is: curve of first compound, second compound 3.16 µM.
The mark [6] stands for this setting: curve of first compound, second compound 10 µM.
The mark [7] stands for this setting: second compound 0.0316 µM, first compound 0.0316 µM.
Setting [8] is: second compound 0.0316 µM, first compound 0.1 µM.
Where [9] appears, read: second compound 0.0316 µM, first compound 0.316 µM.
Setting [10] is: second compound 0.0316 µM, first compound 1 µM.
[11] abbreviates: second compound 0.0316 µM, first compound 3.16 µM.
[12] abbreviates: second compound 0.0316 µM, first compound 10 µM.
The mark [13] stands for this setting: second compound 0.1 µM, first compound 0.0316 µM.
[14] abbreviates: second compound 0.1 µM, first compound 0.1 µM.
[15] abbreviates: second compound 0.1 µM, first compound 0.316 µM.
Where [16] appears, read: second compound 0.1 µM, first compound 1 µM.
Where [17] appears, read: second compound 0.1 µM, first compound 3.16 µM.
[18] abbreviates: second compound 0.1 µM, first compound 10 µM.
Setting [19] is: second compound 0.316 µM, first compound 0.0316 µM.
Setting [20] is: second compound 0.316 µM, first compound 0.1 µM.
The mark [21] stands for this setting: second compound 0.316 µM, first compound 0.316 µM.
Setting [22] is: second compound 0.316 µM, first compound 1 µM.
Where [23] appears, read: second compound 0.316 µM, first compound 3.16 µM.
[24] abbreviates: second compound 0.316 µM, first compound 10 µM.
[25] abbreviates: second compound 1 µM, first compound 0.0316 µM.
Setting [26] is: second compound 1 µM, first compound 0.1 µM.
Setting [27] is: second compound 1 µM, first compound 0.316 µM.
Where [28] appears, read: second compound 1 µM, first compound 1 µM.
[29] abbreviates: second compound 1 µM, first compound 3.16 µM.
Where [30] appears, read: second compound 1 µM, first compound 10 µM.
Where [31] appears, read: second compound 3.16 µM, first compound 0.0316 µM.
Setting [32] is: second compound 3.16 µM, first compound 0.1 µM.
Where [33] appears, read: second compound 3.16 µM, first compound 0.316 µM.
The mark [34] stands for this setting: second compound 3.16 µM, first compound 1 µM.
[35] abbreviates: second compound 3.16 µM, first compound 3.16 µM.
[36] abbreviates: second compound 3.16 µM, first compound 10 µM.
[37] abbreviates: second compound 10 µM, first compound 0.0316 µM.
Setting [38] is: second compound 10 µM, first compound 0.1 µM.
Where [39] appears, read: second compound 10 µM, first compound 0.316 µM.
Setting [40] is: second compound 10 µM, first compound 1 µM.
Setting [41] is: second compound 10 µM, first compound 3.16 µM.
[42] abbreviates: second compound 10 µM, first compound 10 µM.

Values joined by “and” are separate entries in the source; they are usually repeats but may differ in a detail not shown here. Equal values may be shown once.
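Note: spheroids exposed to drugs for seven days before readout.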
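Throughout, for viability, T/C: percent viability relative to DMSO vehicle control taken as 100%.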

As for `O=C(Nc1ccc(O)c(NS(=O)(=O)c2ccc(F)cc2)c1)c1ccc(-c2ccccc2)cc1`, the viability, T/C runs as follows: (compound 0.0316 µM) 98.6% and 86.4% and 88.8%; (compound 0.1 µM) 96% and 86.4% and 90.7%; (compound 0.316 µM) 97.9% and 93.9% and 76.7%; (compound 1 µM) 105% and 82.9% and 109%; (compound 3.16 µM) 91.6% and 97.1% and 84.3%; (compound 10 µM) 77.9% and 78.2% and 65.2%. Besides, the IC50 (curve of compound) was greater than 10000 nM.

On to `CC1COCCN1c1cc(C2(O)CC3CCC(C2)O3)c2cnn(-c3ccn[nH]3)c2n1` (stereo not given), for which the viability, T/C is 90.7% and 78.4% and 84.5% (compound 0.0316 µM); 43% and 48.6% and 58.8% (compound 0.1 µM); 11.1% and 12% and 16.6% (compound 0.316 µM); 10.4% and 9.93% and 13.2% (compound 1 µM); 8.43% and 7.19% and 10.1% (compound 3.16 µM); 2.25% and 2.29% and 3.67% (compound 10 µM). Also, the IC50 (curve of compound) is 84.4 nM and 94.4 nM and 127 nM.

As for `CNCc1ccc(-c2[nH]c3cc(F)cc4c3c2CCNC4=O)cc1`, the viability, T/C (compound 0.0316 µM) was 79.5% and 90.1% and 98.3%; the viability, T/C (compound 0.1 µM) was 85.4% and 95.9% and 92.6%; the viability, T/C (compound 0.316 µM) was 76.9% and 93.3% and 85.4%; the viability, T/C (compound 1 µM) was 77.7% and 96% and 82.6%; the viability, T/C (compound 3.16 µM) is 71.9% and 100% and 80.1%; the viability, T/C (compound 10 µM) is 56.2% and 82.1% and 66.5%. Further, the IC50 (curve of compound) is greater than 10000 nM.

For the compound `CC1COCCN1c1cc(C2(S(C)(=N)=O)CC2)nc(-c2ccnc3[nH]ccc23)n1` (stereo not given) + Nc1ccc(C#CCN(C(=O)Cc2ncc(C(F)(F)F)cc2C(F)(F)F)c2ccc(F)cc2)nn1, the IC50 is 2760 nM under setting [1]; 3070 nM under setting [2]; 2670 nM under setting [3]; 3050 nM under setting [4]; 2540 nM under setting [5]; 2640 nM under setting [6]. In addition, the viability, T/C is, setting by setting: under setting [7], 89.8%; under setting [8], 90.3%; under setting [9], 86.5%; under setting [10], 89.9%; under setting [11], 44.8%; under setting [12], 9.42%. Moreover, the viability, T/C is 89.2% under setting [13]; 89.6% under setting [14]; 87.9% under setting [15]; 83.5% under setting [16]; 49.1% under setting [17]; 9.47% under setting [18]. In addition, the viability, T/C under setting [19] is 89.8%; the viability, T/C under setting [20] was 97.5%; the viability, T/C under setting [21] is 87.1%; the viability, T/C under setting [22] was 84.4%; the viability, T/C under setting [23] was 44%; the viability, T/C under setting [24] was 10.4%. Further, the viability, T/C reads like this: under setting [25], 97.9%; under setting [26], 101%; under setting [27], 87.9%; under setting [28], 85.3%; under setting [29], 48.1%; under setting [30], 10.3%. Besides, the viability, T/C runs as follows: under setting [31], 93.5%; under setting [32], 85.6%; under setting [33], 78.5%; under setting [34], 89.3%; under setting [35], 41.3%; under setting [36], 11.1%. For the same compound, the viability, T/C is 95.7% under setting [37]; 85.3% under setting [38]; 90.9% under setting [39]; 86.4% under setting [40]; 43.2% under setting [41]; 9.54% under setting [42].

As to `C=CC(=O)N1CCN(c2nc(=O)n(-c3c(C)ccnc3C(C)C)c3nc(-c4c(O)cccc4F)c(F)cc23)C(C)C1` (stereo not given) + COC1C(OC(N)=O)C(O)C(Oc2ccc3c(O)c(NC(=O)c4ccc(O)c(CC=C(C)C)c4)c(=O)oc3c2C)OC1(C)C, the IC50 runs as follows: under setting [1], greater than 10000 nM; under setting [2], greater than 10000 nM; under setting [3], greater than 10000 nM; under setting [4], greater than 10000 nM; under setting [5], greater than 10000 nM; under setting [6], greater than 10000 nM. In addition, the viability, T/C runs as follows: under setting [7], 87.3%; under setting [8], 78.7%; under setting [9], 91.3%; under setting [10], 85.1%; under setting [11], 85.7%; under setting [12], 72.1%. Further, the viability, T/C is 87.3% under setting [13]; 87.2% under setting [14]; 82.2% under setting [15]; 91.1% under setting [16]; 87.9% under setting [17]; 95% under setting [18]. In addition, the viability, T/C by setting is: under setting [19], 91.2%; under setting [20], 86.7%; under setting [21], 86.8%; under setting [22], 85.1%; under setting [23], 79.3%; under setting [24], 82.6%. The viability, T/C runs as follows: under setting [25], 92.1%; under setting [26], 94.8%; under setting [27], 93.9%; under setting [28], 88.8%; under setting [29], 73.8%; under setting [30], 95.8%. Also, the viability, T/C under setting [31] was 73.2%; the viability, T/C under setting [32] was 84.6%; the viability, T/C under setting [33] was 82.9%; the viability, T/C under setting [34] is 85%; the viability, T/C under setting [35] is 85.9%; the viability, T/C under setting [36] is 72.1%. In addition, the viability, T/C reads like this: under setting [37], 91.1%; under setting [38], 85.1%; under setting [39], 81.5%; under setting [40], 80.5%; under setting [41], 86%; under setting [42], 89.4%.

A word on the viability, T/C: it is the ratio of treated to control. The term IC50 denotes the midpoint of a concentration-inhibition curve.
